Test results published in EP1171607B1, “STREPTOKINASE FRAGMENTS AND THEIR USE FOR INHIBITING CELL DEATH” (Rabkin, Simon W., priority 1999, dated 2000).
Where no end group is shown, it is not given here.

How the values were obtained:
M07E = M07E starved 30 hours in 1% fetal calf serum; 20 µg/ml peptide
Method: (§1) The hematopoietic, growth factor dependent cell lines, M07E and TF-1 (Mijajima, CDNAX Research Institute, Palo Alto, California), were starved for 30 hours in DMEM containing 1% fetal calf serum (Hyclone, Logan, Utah) in the presence or absence of 20 µg/ml of the 20mer peptide (SEQ. ID NO. 6). Cell viability was measured by one of two methods, trypan blue exclusion or ^3H-thymidine incorporation (Alai et al., J. Biol. Chem. 267:18021-18025, 1992).

TF-1 = TF-1 starved 30 hours in 1% fetal calf serum; 20 µg/ml peptide
Method: as §1

SVDVEYTQFTDFRGKLTKLL [Peptide 20mer] was tested, and the “TRYPAN BLUE COUNTS (% VIABILITY)” value (M07E) was 20 ± 0.5% and the “TRYPAN BLUE COUNTS (% VIABILITY)” value (TF-1) was 29 ± 1%.
